Measured values taken from patent US12612407B2, “Imidazo[2,1-f][1,2,4]triazin-4-amine derivatives as TLR7 agonist” (BEIGENE, LTD., priority 2020, dated 2026).

Columns and labels:
Format in all cases: cell-based
human TLR7 [1] = biological target: T1, human TLR7 (Homo sapiens, UniProt Q9NYK1); test: HEK293-Blue hTLR7 Reporter Assay (QUANTI-BLUE, SEAP readout); details: HEK-Blue-hTLR7 cells, 24 hrs treatment, Table 1, B1-B232
T1 construct: host or cells: HEK293 (HEK-Blue hTLR7)
T1 sequence (Q9NYK1 27-1049): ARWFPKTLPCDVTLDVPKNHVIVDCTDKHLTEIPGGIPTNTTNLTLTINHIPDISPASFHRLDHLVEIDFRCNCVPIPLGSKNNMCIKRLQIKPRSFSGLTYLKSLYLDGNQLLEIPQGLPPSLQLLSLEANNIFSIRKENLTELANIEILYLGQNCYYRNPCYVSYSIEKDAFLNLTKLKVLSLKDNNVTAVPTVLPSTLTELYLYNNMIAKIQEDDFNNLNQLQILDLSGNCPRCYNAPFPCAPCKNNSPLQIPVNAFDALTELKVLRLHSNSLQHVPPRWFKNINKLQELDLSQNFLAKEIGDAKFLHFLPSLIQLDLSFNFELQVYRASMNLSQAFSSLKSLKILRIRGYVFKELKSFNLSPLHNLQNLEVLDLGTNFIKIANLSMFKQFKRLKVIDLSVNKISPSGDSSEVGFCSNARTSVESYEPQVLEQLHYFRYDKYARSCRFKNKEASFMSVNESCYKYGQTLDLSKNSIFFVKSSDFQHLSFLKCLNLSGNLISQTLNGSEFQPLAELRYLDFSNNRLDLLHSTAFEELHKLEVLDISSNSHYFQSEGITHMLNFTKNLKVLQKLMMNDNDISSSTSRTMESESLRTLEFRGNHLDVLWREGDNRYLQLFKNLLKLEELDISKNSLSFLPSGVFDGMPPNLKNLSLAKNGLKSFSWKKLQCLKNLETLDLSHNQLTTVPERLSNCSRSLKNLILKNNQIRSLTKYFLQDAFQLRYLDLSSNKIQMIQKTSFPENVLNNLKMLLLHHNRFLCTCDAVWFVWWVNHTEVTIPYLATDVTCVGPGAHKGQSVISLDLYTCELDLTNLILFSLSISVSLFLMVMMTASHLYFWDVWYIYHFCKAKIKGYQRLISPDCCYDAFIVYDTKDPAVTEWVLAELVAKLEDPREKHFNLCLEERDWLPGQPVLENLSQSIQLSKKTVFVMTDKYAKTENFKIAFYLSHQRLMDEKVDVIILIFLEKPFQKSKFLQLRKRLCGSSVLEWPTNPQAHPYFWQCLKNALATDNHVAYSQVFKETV
How it was run: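 HEK-Blue-hTLR7 cells expressing NF-κB/AP-1-driven SEAP, 4×10^4 cells/well, treated 24 h at 37° C with increasing compound concentrations. Supernatant SEAP measured with Quanti-blue substrate (10-30 min, 37° C) at 620-655 nm; EC50 from sigmoidal dose-response fit.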

human TLR 8 protein = biological target: T2, human TLR 8 protein (Homo sapiens, UniProt Q9NR97); test: TLR8 Stimulation determined using HEK-Blue Detection; details: HEK-Blue hTLR8 cells, 16 hr, percentages of maximum activation with Resiquimod or Motolimod, Table 3
T2 construct: expressed in transfected cells; host or cells: HEK293 (HEK-Blue hTLR8)
T2 sequence (Q9NR97 27-1041): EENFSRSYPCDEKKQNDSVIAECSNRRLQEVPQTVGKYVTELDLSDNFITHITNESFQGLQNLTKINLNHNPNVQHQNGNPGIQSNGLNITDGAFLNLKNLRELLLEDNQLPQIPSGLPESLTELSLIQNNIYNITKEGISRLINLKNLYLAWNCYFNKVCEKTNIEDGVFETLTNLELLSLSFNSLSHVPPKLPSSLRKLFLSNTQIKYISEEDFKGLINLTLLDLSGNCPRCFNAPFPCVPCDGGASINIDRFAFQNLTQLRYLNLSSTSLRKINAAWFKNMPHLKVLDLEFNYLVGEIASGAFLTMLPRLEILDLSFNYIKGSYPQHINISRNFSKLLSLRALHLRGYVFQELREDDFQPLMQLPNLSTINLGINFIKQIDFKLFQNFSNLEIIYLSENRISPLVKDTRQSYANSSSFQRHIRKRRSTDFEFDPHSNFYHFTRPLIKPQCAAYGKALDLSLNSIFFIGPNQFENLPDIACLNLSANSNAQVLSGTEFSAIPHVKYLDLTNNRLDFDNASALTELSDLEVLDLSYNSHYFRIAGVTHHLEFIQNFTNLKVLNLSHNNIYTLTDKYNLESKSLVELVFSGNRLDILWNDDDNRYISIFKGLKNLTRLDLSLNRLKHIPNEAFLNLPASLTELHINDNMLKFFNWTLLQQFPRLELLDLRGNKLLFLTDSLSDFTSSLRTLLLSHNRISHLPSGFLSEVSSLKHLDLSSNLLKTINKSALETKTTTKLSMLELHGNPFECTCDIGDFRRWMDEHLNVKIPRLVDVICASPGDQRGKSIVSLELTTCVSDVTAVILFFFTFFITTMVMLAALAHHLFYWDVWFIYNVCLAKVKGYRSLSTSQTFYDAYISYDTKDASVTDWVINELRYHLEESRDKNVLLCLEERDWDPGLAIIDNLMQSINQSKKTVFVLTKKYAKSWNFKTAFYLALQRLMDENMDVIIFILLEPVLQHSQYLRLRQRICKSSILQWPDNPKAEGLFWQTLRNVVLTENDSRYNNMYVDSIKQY
From the text: TLR8 Stimulation determined using HEK-Blue Detection
(§1) This assay was designed for studying the stimulation of human TLR 8 protein in HEK-Blue hTLR8 tool cell line by monitoring the activation of NF-κB. HEK-Blue hTLR8 cells were obtained by co-transfection of the hTLR8 gene and an optimized secreted embryonic alkaline phosphatase (SEAP) reporter gene into HEK293 cells. The SEAP reporter gene was placed under the control of the IFN-β minimal promoter fused to five NF-κB and AP-1-binding sites. Stimulation with a TLR 8 ligand activates NF-κB and AP-1 which induce the expression of SEAP. Levels of SEAP can be easily determined with HEK-Blue Detection, a cell culture medium that allows for real-time detection of SEAP. HEK-Blue Detection contains all the nutrients necessary for cell growth and a specific SEAP color substrate. The hydrolysis of the substrate by SEAP produces a purple/blue color that can be measured with a spectrophotometer.
(§2) When growing to 50-80% confluency, HEK-Blue hTLR7/8 cells were plated into 96-well plate (costar 3599) at a density of 40000 cells/well. Then compounds were added with serial dilutions over 10 points with a 1 nM-10 uM final concentration range in 0.1% DMSO/HEK-Blue Detection. The plates were then incubated for 16 hr at 37° C. in 5% CO2. The optical density at 620-655 nm was read on BMG PHERAstar FSX instrument. The EC50 for each compound was determined by calculating the percentages of the maximum activation identified with Resiquimod or Motolimod.

human TLR7 [2] = biological target: T1, human TLR7; test: TLR7 Stimulation Determined Using HEK-Blue Detection; details: HEK-Blue hTLR7 cells, 16 hr, percentages of maximum activation with Resiquimod, Table 1, B233-B247
From the text: TLR7 Stimulation Determined Using HEK-Blue Detection
as §1, with “TLR7” for “TLR 8”, “hTLR7” for “hTLR8”
as §2, with “HEK-Blue hTLR7” for “HEK-Blue hTLR7/8”, “a 0.04” for “a 1”, “nM-10 μM” for “nM-10 uM”, “5% CO2 and vortex for 30 s before measurement.” for “5% CO2.”, “with Resiquimod.” for “with Resiquimod or Motolimod.”

EC50 (human TLR7 [1])	EC50 (human TLR 8 protein)	EC50 (human TLR7 [2])	SMILES
2.2 nM	> 10000 nM		CCC[C@H](C)Nc1nc(N)c2ncc(Cc3cnc(N4CCC(CN(C)C)CC4)c(C)c3)n2n1 (single isomer, unassigned) [Compound B147]
2.6 nM	> 10000 nM		CCC[C@H](C)Nc1nc(N)c2ncc(Cc3cnc(N4CCC(CNC)CC4)c(C)c3)n2n1 (single isomer, unassigned) [Compound B213]
3.7 nM	197 nM		CCC[C@H](C)Oc1nc(N)c2ncc(Cc3cnc(N4CCNCC4)c(C)c3)n2n1 [Compound B118, (S)-7-((5-methyl-6-(piperazin-1-yl)pyridin-3-yl)methyl)-2-(pentan-2-yloxy)imidazo[2,1-f][1,2,4]triazin-4-amine]
2.6 nM	262 nM		CCC[C@H](C)Oc1nc(N)c2ncc(Cc3cnc(N4CCC(N(C)C)CC4)c(C)c3)n2n1 [Compound B122, (S)-7-((6-(4-(dimethylamino)piperidin-1-yl)-5-methylpyridin-3-yl)methyl)-2-(pentan-2-yloxy)imidazo[2,1-f][1,2,4]triazin-4-amine]
1.9 nM	310 nM		CCC[C@H](C)Oc1nc(N)c2ncc(Cc3cnc(N4CCC(CN(C)C)CC4)c(C)c3)n2n1 [Compound B123, (S)-7-((6-(4-((dimethylamino)methyl)piperidin-1-yl)-5-methylpyridin-3-yl)methyl)-2-(pentan-2-yloxy)imidazo[2,1-f][1,2,4]triazin-4-amine]
8.7 nM	530 nM		CCCC(CC)Oc1nc(N)c2ncc(Cc3cnc(N4CCNCC4)c(C)c3)n2n1 (stereo not shown) [Compound B140, 2-(hexan-3-yloxy)-7-((5-methyl-6-(piperazin-1-yl)pyridin-3-yl)methyl)imidazo[2,1-f][1,2,4]triazin-4-amine]
7 nM	150 nM		CCCC(CCO)Oc1nc(N)c2ncc(Cc3cnc(N4CCNCC4)c(C)c3)n2n1 (stereo not shown) [Compound B165, 3-((4-amino-7-((5-methyl-6-(piperazin-1-yl)pyridin-3-yl)methyl)imidazo[2,1-f][1,2,4]triazin-2-yl)oxy)hexan-1-ol]
4.4 nM	> 10000 nM		CCCC(CCC)Nc1nc(N)c2ncc(Cc3cnc(N4CCC(CN(C)C)CC4)c(C)c3)n2n1 [Compound B190, 7-((6-(4-((dimethylamino)methyl)piperidin-1-yl)-5-methylpyridin-3-yl)methyl)-N2-(heptan-4-yl)imidazo[2,1-f][1,2,4]triazine-2,4-diamine]
2.8 nM	> 10000 nM		CCCC(CCC)Nc1nc(N)c2ncc(Cc3cnc(N4CCN(C(=O)CN(C)C)CC4)c(C)c3)n2n1 [Compound B195, 1-(4-(5-((4-amino-2-(heptan-4-ylamino)imidazo[2,1-f] [1,2,4]triazin-7-yl)methyl)-3-methylpyridin-2-yl)piperazin-1-yl)-2-(dimethylamino)ethan-1-one]
2.4 nM	> 10000 nM		CCC[C@H](C)Nc1nc(N)c2ncc(Cc3cnc(N4CCN(C(=O)CN(C)C)CC4)c(C)c3)n2n1 [Compound B219, (S)-1-(4-(5-((4-amino-2-(pentan-2-ylamino)imidazo[2,1-f][1,2,4]triazin-7-yl)methyl)-3-methylpyridin-2-yl)piperazin-1-yl)-2-(dimethylamino)ethan-1-one]
	> 10000 nM	18.4 nM	CCC[C@H](C)Nc1nc(N)c2ncc(Cc3cnc(N4CCN[C@@H](CC#N)C4)c(C)c3)n2n1 [Compound B233, 2-((S)-4-(5-((4-amino-2-(((S)-pentan-2-yl)amino)imidazo[2,1-f][1,2,4]triazin-7-yl)methyl)-3-methylpyridin-2-yl)piperazin-2-yl)acetonitrile]
		8.5 nM	CCCC(C)Oc1nc(N)c2ncc(Cc3cnc(N4CCC(CNCCOC)CC4)c(C)c3)n2n1 (stereo not shown) [Compound B237, 7-((6-(4-(((2-methoxyethyl)amino)methyl)piperidin-1-yl)-5-methylpyridin-3-yl)methyl)-2-(pentan-2-yloxy)imidazo[2,1-f][1,2,4]triazin-4-amine]

SMILES	EC50 (human TLR7 [1])	EC50 (human TLR 8 protein)	EC50 (human TLR7 [2])
CCCCOc1nc(N)c2ncc(Cc3ccc(C4CCNCC4)nc3F)n2n1 [Compound B21, 2-butoxy-7-((2-fluoro-6-(piperidin-4-yl)pyridin-3-yl)methyl)imidazo[2,1-f][1,2,4]triazin-4-amine]	115 nM	250 nM	
